Measurements: US5888995A, “Steroid esters” (priority 1991, dated 1999)
Like-named read-outs stand apart in the source and are kept apart here.

Experiments:
[1] = system: Sephadex induced lung edema (lung); assay: Unwanted systemic effect by orally absorbed glucocorticosteroid, Sephadex induced lung edema model, oral administration; type: in vivo, Sprague Dawley rats; details: Rattus norvegicus, 20 h, in liposomes, given orally 2 h before Sephadex, dose to reduce the edema by 50%, read-out: ED50 (p.o. adm.) lung
Method: (§1) B) Test model for unwanted systemic effect by orally absorbed glucocorticosteroid
(§2) Sprague Dawley rats (250 g) were slightly anaesthetized with Ephrane and the GCS test preparation in a volume of 1.0 ml/kg was given orally. Two hours later a suspension of Sephadex (5 mg/kg in a volume of 1 ml/kg) was instilled in the trachea well above the bifurcation so that the suspension reached both the left and the right lung lobes. Twenty hours later, the rats were killed and the lung lobes were weighed. Control groups got vehicle instead of glucocorticosteroid preparation and saline instead of Sephadex suspension so that lung weight due to non-drug-treated, Sephadex-induced edema and the normal lung weight could be determined.

[2] = system: Sephadex induced lung edema (left lung lobe); assay: Desired local antiinflammatory activity on airway mucosa (left lung lobe), Sephadex induced lung edema model, local instillation; type: in vivo, Sprague Dawley rats; details: Rattus norvegicus; in liposomes; instilled into left lung lobe 2 h before Sephadex; dose to reduce the edema by 50%; lungs weighed 20 h after Sephadex; read-out: ED50 (left lung administration) Left lung lobe
Method: (§3) A) Test model for desired local antiinflammatory activity on airway mucosa (left lung lobe).
(§4) Sprague Dawley rats (250 g) were slightly anaesthetized. with Ephrane and the glucocorticosteroid test preparation (in liposomes suspended in saline) in a volume of 0.5 ml/kg was instilled into the left lung lobe only. Two hours later a suspension of Sephadex (5 mg/kg in a volume of 1 ml/kg) was instilled in the trachea well above the bifurcation so that the suspension reached both the left and right lung lobes. Twenty hours later the rats were killed and the left lung lobes dissected out and weighed. Control groups got vehicle instead of glucocorticosteroid preparation and saline instead of Sephadex suspension so that lung weight due to non-drug-treated, Sephadex-induced edema and the normal lung weight could be determined.

[3] = system: Sephadex induced lung edema; assay: Lung selectivity: ratio of oral and local ED50 in the Sephadex induced lung edema model; type: in vivo, Sprague Dawley rats; details: in liposomes; ED50 p.o. / ED50 left lung lobe
Source text: A considerable fraction of inhaled GCS is deposited in the pharynx and is subsequently swallowed, ending up in the gut. This fraction contributes to the unwanted side effects of the steroid since it is acting outside the area (the lung) intended for treatment. Therefore, it is favourable to use a GCS with high local anti-inflammatory activity in the lung but low GCS-induced effects after oral administration. Studies were therefore done in order to determine the GCS-induced effects after local application in the lung as well as after peroral administration, and the differentiation between glucocorticosteroid actions in the treated lung region and outside this area was tested in the following way.
as §3, §4, §1, §2

[4] = cited from earlier work; for unwanted GCS actions within the general circulation: highest of the recommended doses for inhalation

Row | SMILES | ED50 [1] | ED50 [2] | Ratio oral/local administration (ED50) [3] | unwanted GCS actions within the general circulation [4] | safety margin ([4]; in vivo) | safety margin ([4]; inhaled, clinical use)
1 | CCCCCCCCCCCCCCCC(=O)OCC(=O)[C@@]12O[C@@H](CCC)O[C@@H]1C[C@H]1[C@@H]3C[C@H](F)C4=CC(=O)C=C[C@]4(C)[C@@]3(F)[C@@H](O)C[C@@]12C [Example 7, (22S)-16α,17α-Butylidenedioxy-6α,9α-difluoro-11β-hydroxy-21-palmitoyloxypregna-1,4-diene-3,20-dione] | 0.568 µmol/kg | 0.0023 µmol/kg | 247 | – | – | –
2 | CCCCCCCCCCCCCCCC(=O)OCC(=O)[C@@]12O[C@H](CCC)O[C@@H]1C[C@H]1[C@@H]3C[C@H](F)C4=CC(=O)CC[C@]4(C)[C@@]3(F)[C@@H](O)C[C@@]12C [Example 1, (22R)-16α,17α-Butylidenedioxy-6α,9α-difluoro-11β-hydroxy-21-palmitoyloxypregn-4-ene-3,20-dione] | 0.839 µmol/kg | 0.0015 µmol/kg | 559 | – | – | –
3 | CCCCCCCCCCCCCCCC(=O)OCC(=O)[C@@]12O[C@@H](CCC)O[C@@H]1C[C@H]1[C@@H]3C[C@H](F)C4=CC(=O)CC[C@]4(C)[C@@]3(F)[C@@H](O)C[C@@]12C [Example 3, (22S)-16α,17α-Butylidenedioxy-6α,9α-difluoro-11β-hydroxy-21-palmitoyloxypregn-4-ene-3,20-dione] | 0.554 µmol/kg | 0.0035 µmol/kg | 158 | – | – | –
4 | CCCCCCCCCCCCCCCC(=O)OCC(=O)[C@@]12O[C@H](CCC)O[C@@H]1C[C@H]1[C@@H]3C[C@H](F)C4=CC(=O)C=C[C@]4(C)[C@@]3(F)[C@@H](O)C[C@@]12C [Example 6, (22R)-16α,17α-Butylidenedioxy-6α,9α-difluoro-11β-hydroxy-21-palmitoyloxypregna-1,4-diene-3,20-dione] | – | 0.0018 µmol/kg | – | – | – | –
5 | CCC(=O)OCC(=O)[C@@]1(OC(=O)CC)[C@@H](C)C[C@H]2[C@@H]3CCC4=CC(=O)C=C[C@]4(C)[C@@]3(Cl)[C@@H](O)C[C@@]21C [beclomethasone 17α,21-dipropionate] | – | – | – | unwanted GCS actions within the general circulation have been reported | rather narrow safety margin | –
6 | CCCCCCCCCCCCCCCC(=O)OCC(=O)[C@@]1(O)[C@H](C)C[C@H]2[C@@H]3C[C@H](F)C4=CC(=O)C=C[C@]4(C)[C@@]3(F)[C@@H](O)C[C@@]21C [Flumethasone-21-palmitate] | 0.018 µmol/kg | 0.0022 µmol/kg | 8 | – | – | –
7 | CCCCCCCCCCCCCCCC(=O)OCC(=O)[C@@]12OC(CCC)O[C@@H]1C[C@H]1[C@@H]3CCC4=CC(=O)C=C[C@]4(C)[C@H]3[C@@H](O)C[C@@]12C (stereo partly drawn) [Budesonide-21-palmitate (RS), Budesonide-21-palmitate] | 1.52 µmol/kg | 0.023 µmol/kg | 66 | – | – | –
8 | CCCC1O[C@@H]2C[C@H]3[C@@H]4CCC5=CC(=O)C=C[C@]5(C)[C@H]4[C@@H](O)C[C@]3(C)[C@]2(C(=O)CO)O1 (some centres unmarked) [budesonide] | – | – | – | unwanted GCS actions within the general circulation have been reported | – | rather narrow safety margin
